According to PMC11864979, “First-in-class ultralong-target-residence-time p38α inhibitors as a mitosis-targeted therapy for colorectal cancer” (Nature Cancer, 2025):
pIC50: −log10 of the molar value. “And” between values parts separate entries of the source, which are not always exact repeats. Equal entries are not always repeated.

Assays:
[1] = tested on: COLO 205; assay: cell viability in human CRC cell line COLO 205; type: cell-based; conditions: Homo sapiens, COLO 205, 96 h, 10.0000 µM, 4 d; read-out: COLO 205 Cell viability (%)
Procedure: (§1) To generate KAP^2D cells, KAP organoids were isolated from Matrigel, fragmented by mechanical dissociation and plated without any extracellular matrix on common cell culture dishes. Phoenix-Eco packaging cells (CRL-3214), HCT-15 (CCL-225), HCT 116 (CCL-247), COLO 205 (CCL-222), LS 174T (CL-188), RKO (CRL-2577) and HT-29 (HTB-38) were obtained from the American Type Culture Collection. The cells were cultured at 37 °C and 7% CO2 with RPMI (KAP^2D cells) or DMEM (other cell lines), supplemented with 10% FBS and penicillin–streptomycin. KAP^2D cells were authenticated using PCR (Kras locus and Trp53 locus). Phoenix-Eco packaging cells and HCT-15, HCT 116, COLO 205, LS 174T, RKO and HT-29 cells were authenticated by the provider using short tandem repeat profiling. No commonly misidentified cell lines were used. Mycoplasma contamination was excluded by a PCR-based analysis.
(§2) For in vitro treatment studies, organoids were mechanically dissociated and digested using TrypLE supplemented with 100 µg ml^−1 DNaseI and 10.5 µM Y-27632 dihydrochloride (Invitrogen) at 37 °C. A total of 1,000–2,000 single cells were plated per well in white 96-well plates (Greiner) in culture medium containing 10% GFR Matrigel or Cultrex BME. The treatment with doxycycline (5 µg ml^−1), pharmacological inhibitors or corresponding volumes of DMSO was started 24 h after plating. Doxycycline was obtained from Sigma-Aldrich. […] Cell viability was measured by means of CellTiter-Glo 3D or CellTiter-Glo 2.0 reagent (Promega) according to the manufacturers’ instructions and the Infinite M Plex reader (Tecan, i-control version 3.9.1 software). Results were normalized to vehicle (DMSO) or to shNC. For cell-doubling assays, the cell number was quantified at the corresponding time points using Guava EasyCyte flow cytometer (Luminex, CytoSoft v5.2 software).

[2] = tested on: PDO10; assay: cell viability in patient-derived CRC organoids PDO10; type: cell-based, human
Procedure: as §2

[3] = tested on: HCT 116; assay: cell viability in human CRC cell line HCT 116; type: cell-based
Procedure: as §1, §2

[4] = tested on: KAP^2D cells; assay: quantification of viable KAP^2D cells over time (cell-doubling assay); type: cell-based, mouse; conditions: Fig. 4i
Procedure: The treatment with doxycycline (5 µg ml^−1), pharmacological inhibitors or corresponding volumes of DMSO was started 24 h after plating. […] Cell viability was measured by means of CellTiter-Glo 3D or CellTiter-Glo 2.0 reagent (Promega) according to the manufacturers’ instructions and the Infinite M Plex reader (Tecan, i-control version 3.9.1 software). Results were normalized to vehicle (DMSO) or to shNC. For cell-doubling assays, the cell number was quantified at the corresponding time points using Guava EasyCyte flow cytometer (Luminex, CytoSoft v5.2 software).

[5] = tested on: PDO13; assay: cell viability in patient-derived CRC organoids PDO13; type: cell-based, human
Procedure: as §2

[6] = tested on: PDO9; assay: cell viability in patient-derived CRC organoids PDO9; type: cell-based, human
Procedure: as §2

[7] = tested on: PDO12; assay: cell viability in patient-derived CRC organoids PDO12; type: cell-based, human; conditions: PDO12, 0.5 µM, 4 d
Procedure: as §2

[8] = tested on: PDO14; assay: cell viability in patient-derived CRC organoids PDO14; type: cell-based, human
Procedure: as §2

[9] = tested on: LS 174T; assay: cell viability in human CRC cell line LS 174T; type: cell-based
Procedure: The cells were cultured at 37 °C and 7% CO2 with RPMI (KAP^2D cells) or DMEM (other cell lines), supplemented with 10% FBS and penicillin–streptomycin. […] No commonly misidentified cell lines were used. Mycoplasma contamination was excluded by a PCR-based analysis.

SMILES: CNC(=O)c1ccc2c(c1)C(=O)c1ccc(Nc3ccc(F)c(NC(=O)C4CC4)c3)cc1CC2 [Compound 2015]
- viability at 10 µM [1]: 13.9%
- viability at 1 µM ([2]; Homo sapiens, 96 h, PDO10, 1 µM, 4 days, read-out: Cell viability (%)): 32.9%
- Cell viability (%) ([2]; PDO10, 0.5 µM, 4 d, 0.5 µM): 34.24% and 30.71% and 56.53%
- Cell viability (%) ([2]; PDO10, 1 µM, 4 days, 1 µM): 48.68% and 34.77%
- HCT 116 Cell viability (%) ([3]; 0.0137 µM, 4 d): 85.88% and 79.68% and 90.88% and 87.20%
- HCT 116 Cell viability (%) ([3]; 0.0412 µM, 4 d): 87.17% and 85.37% and 79.18% and 81.34% and 80.02%
- HCT 116 Cell viability (%) ([3]; 0.1235 µM, 4 d): 87.59% and 86.63% and 89.97% and 77.29% and 78.27%
- HCT 116 Cell viability (%) ([3]; 0.3704 µM, 4 d): 48.15% and 38.21% and 37.69% and 25.63% and 24.67% and 24.34%
- HCT 116 Cell viability (%) ([3]; 1.1111 µM, 4 d): 30.94% and 32.21% and 17.75% and 19.27% and 17.57%
- pIC50 ([3]; Homo sapiens, 96 h, HCT 116, 4 d of treatment): 6.65
- viability at 0.0137 µM ([3]; Homo sapiens, HCT-116, 96 h, 0.0137 µM, 4 d, read-out: HCT 116 Cell viability (%)): 90.6%
- viability at 0.0412 µM ([3]; Homo sapiens, HCT-116, 96 h, 0.0412 µM, 4 d, read-out: HCT 116 Cell viability (%)): 90.7%
- viability at 0.1235 µM ([3]; Homo sapiens, HCT-116, 96 h, 0.1235 µM, 4 d, read-out: HCT 116 Cell viability (%)): 90.7%
- viability at 1.1111 µM ([3]; Homo sapiens, HCT-116, 96 h, 1.1111 µM, 4 d): 28.5%
- Number of cells ([4]; 0 h of treatment): 41307.05 and 44263.95 and 43595.63 and 48502.24 and 40389.64
- Number of cells ([4]; 12 h of treatment): 56623.49 and 67064.09 and 57491.63 and 61648.82 and 68603.21 and 63323.28
- Number of cells ([4]; 24 h of treatment): 66705.14 and 74668.97 and 68938.05 and 94046.77 and 77517.08 and 74107.42
- Number of cells ([4]; 36 h of treatment): 95730.63 and 106064.51 and 93579.45 and 106339.60 and 110499.20 and 87144.95
- Number of cells ([4]; 48 h of treatment): 89649.37 and 121264.28 and 95171.59 and 108694.60 and 121883.40 and 116976.50
- Number of cells ([4]; 60 h of treatment): 136203.08 and 127468.86 and 129997.76 and 163066.30 and 164108.30 and 135189.10
- viability at 0.5 µM ([5]; Homo sapiens, 96 h, PDO13, 0.5 µM, 4 d, read-out: Cell viability (%)): 25.4%
- viability at 1 µM ([5]; Homo sapiens, 96 h, PDO13, 1 µM, 4 days, read-out: Cell viability (%)): 27.4%
- Cell viability (%) ([5]; PDO13, 0.5 µM, 4 d, 0.5 µM): 27.09% and 31.57%
- Cell viability (%) ([5]; PDO13, 1 µM, 4 days, 1 µM): 24.42% and 28.18%
- viability at 0.5 µM ([6]; Homo sapiens, 96 h, PDO9, 0.5 µM, 4 d, read-out: Cell viability (%)): 20.8%
- viability at 1 µM ([6]; Homo sapiens, 96 h, PDO9, 1 µM, 4 days): 9.78%
- Cell viability (%) ([6]; PDO9, 0.5 µM, 4 d, 0.5 µM): 30.12% and 37.18%
- Cell viability (%) ([6]; PDO9, 1 µM, 4 days, 1 µM): 8.84% and 14.14%
- viability at 0.5 µM ([7]; Homo sapiens, 96 h, read-out: Cell viability (%)): 40%
- Cell viability (%) ([7]; 0.5 µM): 54.51% and 54.94%
- viability at 1 µM ([8]; Homo sapiens, 96 h, PDO14, 1 µM, 4 days, read-out: Cell viability (%)): 38%
- Cell viability (%) ([8]; PDO14, 0.5 µM, 4 d, 0.5 µM): 66.36% and 80.25% and 88.11%
- Cell viability (%) ([8]; PDO14, 1 µM, 4 days, 1 µM): 35.04% and 42.53%
- LS 174T Cell viability (%) ([9]; 0.0137 µM, 4 d): 96.94% and 94.17% and 83.74% and 81.63% and 85.36%
- LS 174T Cell viability (%) ([9]; 0.0412 µM, 4 d): 73.38% and 70.71% and 85.74% and 87.33% and 89.84%
- LS 174T Cell viability (%) ([9]; 0.1235 µM, 4 d): 69.97% and 51.36% and 67.79% and 77.35% and 76.20% and 73.53%
- LS 174T Cell viability (%) ([9]; 0.3704 µM, 4 d): 24.32% and 25.80% and 26.81% and 26.78% and 26.48%
- LS 174T Cell viability (%) ([9]; 1.1111 µM, 4 d): 31.73% and 32.17% and 36.58% and 37.87% and 35.55%
- LS 174T Cell viability (%) ([9]; 3.3333 µM, 4 d): 32.71% and 33.28% and 34.27% and 33.01% and 33.12%
- LS 174T Cell viability (%) ([9]; 10.0000 µM, 4 d): 28.71% and 24.62% and 25.79% and 25.85%
- viability at 0.0137 µM ([9]; Homo sapiens, LS174T, 96 h, 0.0137 µM, 4 d, read-out: LS 174T Cell viability (%)): 92.3%
- viability at 0.0412 µM ([9]; Homo sapiens, LS174T, 96 h, 0.0412 µM, 4 d, read-out: LS 174T Cell viability (%)): 70.7%
- viability at 0.3704 µM ([9]; Homo sapiens, LS174T, 96 h, 0.3704 µM, 4 d, read-out: LS 174T Cell viability (%)): 25%
- viability at 1.1111 µM ([9]; Homo sapiens, LS174T, 96 h, 1.1111 µM, 4 d, read-out: LS 174T Cell viability (%)): 31.5%
- viability at 3.3333 µM ([9]; Homo sapiens, LS174T, 96 h, 3.3333 µM, 4 d, read-out: LS 174T Cell viability (%)): 33.1%
- viability at 10 µM ([9]; Homo sapiens, LS174T, 96 h, 10.0000 µM, 4 d, read-out: LS 174T Cell viability (%)): 25.1%
- pIC50 ([9]; Homo sapiens, LS174T, 96 h, LS 174T, 4 d of treatment): 6.88
